Source: patent EP1077981B1, “NOVEL CEPHALOSPORIN COMPOUNDS, PROCESSES FOR PREPARATION THEREOF AND ANTIMICROBIAL COMPOSITIONS CONTAINING THE SAME” (LG CHEMICAL LIMITED, priority 1998, dated 1999)
Converted amounts (≈) assume the structure as drawn. Where two headings read alike, the source gives them in different places.

Experiments:
Assay in all cases: MIC against standard strains (agar dilution)
Format in all cases: cell-based
Escherichia coli 851E = test system: Escherichia coli 851E
Procedure: (§1) Test example 1: Measurement of Minimum Inhibitory Concentration (MIC)
(§2) Specifically, test compounds were diluted by 2-fold dilution method and dispersed in Mueller-Hinton agar medium and then, 2µℓ of test strains were inoculated at a concentration of 10^7 cfu(colony forming unit)/mℓ on the medium and incubated for 20 hours at 37°C.

Staphylococcus aureus 77 = details: Staphylococcus aureus 77; Mueller-Hinton agar, 20 hours at 37°C; read-out: MIC
Procedure: as §1, §2

[1] = test system: Klebsiella aerogenes K1+ 1082E; details: Klebsiella aerogenes K1+ 1082E; Mueller-Hinton agar, 20 hours at 37°C; read-out: MIC
Procedure: as §1, §2

[2] = test system: Serratia marcescens 1826E; details: Serratia marcescens 1826E; Mueller-Hinton agar, 20 hours at 37°C; read-out: MIC
Procedure: as §1, §2

[3] = test system: Staphylococcus aureus 241; details: Staphylococcus aureus 241; Mueller-Hinton agar, 20 hours at 37°C; read-out: MIC
Procedure: as §1, §2

[4] = test system: Acinetobacter calcoaceticu 15473; details: Acinetobacter calcoaceticu 15473; Mueller-Hinton agar, 20 hours at 37°C; read-out: MIC
Procedure: as §1, §2

Enterobacter cloacae P99 = details: Enterobacter cloacae P99; Mueller-Hinton agar, 20 hours at 37°C; read-out: MIC
Procedure: as §1, §2

[5] = test system: Escherichia coli TEM3 3455E; details: TEM33455E, 20 h
Procedure: as §1, §2

[6] = test system: Escherichia coli TEM1 1193E; details: TEM11193E, 20 h
Procedure: as §1, §2

Escherichia coli 10536 = details: Escherichia coli 10536; Mueller-Hinton agar, 20 hours at 37°C; read-out: MIC
Procedure: as §1, §2

[7] = test system: Enterobacter cloacae IND+VE 1194E; details: Enterobacter cloacae IND+VE 1194E; Mueller-Hinton agar, 20 hours at 37°C; read-out: MIC
Procedure: as §1, §2

[8] = test system: Staphylococcus epidermidi 887E; details: Staphylococcus epidermidi 887E; Mueller-Hinton agar, 20 hours at 37°C; read-out: MIC
Procedure: as §1, §2

[9] = test system: Morganella morganii 1375E; details: Morganella morganii 1375E; Mueller-Hinton agar, 20 hours at 37°C; read-out: MIC
Procedure: as §1, §2

[10] = test system: Citrobacter freundii 8090; details: Citrobacter freundii 8090; Mueller-Hinton agar, 20 hours at 37°C; read-out: MIC
Procedure: as §1, §2

S. aureus = details: Staphylococcus aureus, Mueller-Hinton agar, 10^7 cfu/mℓ, 20 hours at 37°C
Procedure: as §1, §2

Escherichia coli 3190Y = test system: Escherichia coli 3190Y
Procedure: as §1, §2

[11] = test system: Salmonella typhimurium 14028; details: Salmonella enterica; Salmonella typhimurium 14028; Mueller-Hinton agar, 20 hours at 37°C; read-out: MIC
Procedure: as §1, §2

[12] = test system: Moraxella catarrhalis 25240; details: Moraxella catarrhalis 25240; Mueller-Hinton agar, 20 hours at 37°C; read-out: MIC
Procedure: as §1, §2

[13] = test system: Citrobacter diversus 2046E; details: Citrobacter koseri; Citrobacter diversus 2046E; Mueller-Hinton agar, 20 hours at 37°C; read-out: MIC
Procedure: as §1, §2

[14] = test system: Staphylococcus aureus 6538p; details: Staphylococcus aureus 6538p; Mueller-Hinton agar, 20 hours at 37°C; read-out: MIC
Procedure: as §1, §2

Proteus vulgaris 6059 = details: Proteus vulgaris 6059; Mueller-Hinton agar, 20 hours at 37°C; read-out: MIC
Procedure: as §1, §2

P. vulgaris = details: Proteus vulgaris, Mueller-Hinton agar, 10^7 cfu/mℓ, 20 hours at 37°C
Procedure: as §1, §2

[15] = test system: Staphylococcus aureus giorgio; details: Staphylococcus aureus giorgio; Mueller-Hinton agar, 20 hours at 37°C; read-out: MIC
Procedure: as §1, §2

[16] = test system: Klebsiella aerogenes SHV-1 1976E
Procedure: as §1, §2

[17] = test system: Enterococcus faecalis 29212; details: Enterococcus faecalis 29212; Mueller-Hinton agar, 20 hours at 37°C; read-out: MIC
Procedure: as §1, §2

S. pneumoniae = details: Streptococcus pneumoniae, Mueller-Hinton agar, 10^7 cfu/mℓ, 20 hours at 37°C
Procedure: as §1, §2

[18] = test system: Pseudomonas aeruginosa 6065Y; details: Pseudomonas aeruginosa 6065Y; Mueller-Hinton agar, 20 hours at 37°C; read-out: MIC
Procedure: as §1, §2

[19] = test system: Pseudomonas aeruginosa 1912E; details: Pseudomonas aeruginosa 1912E; Mueller-Hinton agar, 20 hours at 37°C; read-out: MIC
Procedure: as §1, §2

[20] = test system: Moraxella catarrhalis C2431; details: Moraxella catarrhalis C2431; Mueller-Hinton agar, 20 hours at 37°C; read-out: MIC
Procedure: as §1, §2

E. coli = details: Escherichia coli, Mueller-Hinton agar, 10^7 cfu/mℓ, 20 hours at 37°C
Procedure: as §1, §2

[21] = test system: Klebsiella pneumoniae 2011E; details: Klebsiella pneumoniae 2011E; Mueller-Hinton agar, 20 hours at 37°C; read-out: MIC
Procedure: as §1, §2

H. influenzae = details: Haemophilus influenzae; H. influenzae; Mueller-Hinton agar, 10^7 cfu/mℓ, 20 hours at 37°C; read-out: MIC
Procedure: as §1, §2

[22] = test system: Escherichia coli TEM9 2639E; details: TEM92639E; Escherichia coli TEM9 2639E; Mueller-Hinton agar, 20 hours at 37°C; read-out: MIC
Procedure: as §1, §2

| SMILES | MIC (Staphylococcus aureus 77) | MIC [1] | MIC [2] | MIC [3] | MIC [4] | MIC (Enterobacter cloacae P99) | MIC [5] | MIC [6] | MIC (Escherichia coli 10536) | MIC [7] | MIC [8] | MIC [9] | MIC [10] | MIC [11] | MIC [12] | MIC [13] | MIC [14] | MIC (Proteus vulgaris 6059) | MIC [15] | MIC [17] | further results |
| --- | --- | --- | --- | --- | --- | --- | --- | --- | --- | --- | --- | --- | --- | --- | --- | --- | --- | --- | --- | --- | --- |
| CC(C)(O/N=C(\C(=O)N[C@@H]1C(=O)N2C(C(=O)[O-])=C(C[n+]3ccccc3)CS[C@H]12)c1csc(N)n1)C(=O)O [Ceftazidime, reference compound] | 32 µg/mL (≈ 58.5 µM) | 0.25 µg/mL (≈ 0.457 µM) | 0.25 µg/mL (≈ 0.457 µM) | > 128 µg/mL | 2 µg/mL (≈ 3.66 µM) | 32 µg/mL (≈ 58.5 µM) | 8 µg/mL (≈ 14.6 µM) | 0.13 µg/mL (≈ 0.238 µM) | 0.063 µg/mL (≈ 0.115 µM) | 0.5 µg/mL (≈ 0.915 µM) | > 128 µg/mL | 0.063 µg/mL (≈ 0.115 µM) | 0.13 µg/mL (≈ 0.238 µM) | 0.25 µg/mL (≈ 0.457 µM) | 0.016 µg/mL (≈ 0.0293 µM) | 0.25 µg/mL (≈ 0.457 µM) | 16 µg/mL (≈ 29.3 µM) | 0.031 µg/mL (≈ 0.0567 µM) | 4 µg/mL (≈ 7.32 µM) | > 128 µg/mL | MIC (Escherichia coli 851E; Escherichia coli 851E, Mueller-Hinton agar, 20 hours at 37°C, read-out: MIC): 0.063 µg/mL (≈ 0.115 µM); MIC (S. aureus): 4 µg/mL (≈ 7.32 µM); MIC (Escherichia coli 3190Y; Escherichia coli 3190Y, Mueller-Hinton agar, 20 hours at 37°C, read-out: MIC): 0.031 µg/mL (≈ 0.0567 µM); MIC (P. vulgaris): 0.031 µg/mL (≈ 0.0567 µM); MIC ([16]; SHV11976E, Klebsiella aerogenes SHV-1 1976E, Mueller-Hinton agar, 20 hours at 37°C, read-out: MIC): 0.25 µg/mL (≈ 0.457 µM); MIC (S. pneumoniae): 8 µg/mL (≈ 14.6 µM); MIC [18]: 32 µg/mL (≈ 58.5 µM); MIC [19]: 1 µg/mL (≈ 1.83 µM); MIC [20]: 0.031 µg/mL (≈ 0.0567 µM); MIC (E. coli): 0.031 µg/mL (≈ 0.0567 µM); MIC [21]: 0.5 µg/mL (≈ 0.915 µM); MIC (H. influenzae): 0.063 µg/mL (≈ 0.115 µM); MIC [22]: > 128 µg/mL |
| Nc1cc(SC2=C(C(=O)O)N3C(=O)C(NC(=O)/C(=N\O)c4csc(N)n4)C3SC2)nc(N)n1 (stereo not shown) [compound 26, 7-[(Z)-2-(2-amino-thiazol-4-yl)-2-hydroxyimino-acetylamino]-3-(2,6-diamino-pyrimidin-4-ylsulfanyl)-8-oxo-5-thia-1-azabicyclo[4,2,0]oct-2-ene-2-carboxylic acid] | 2 µg/mL (≈ 3.92 µM) | > 64 µg/mL | 64 µg/mL (≈ 126 µM) | 8 µg/mL (≈ 15.7 µM) | 32 µg/mL (≈ 62.8 µM) | > 64 µg/mL | 64 µg/mL (≈ 126 µM) | 0.5 µg/mL (≈ 0.981 µM) | 0.063 µg/mL (≈ 0.124 µM) | > 64 µg/mL | 2 µg/mL (≈ 3.92 µM) | 0.25 µg/mL (≈ 0.491 µM) | 8 µg/mL (≈ 15.7 µM) | 0.13 µg/mL (≈ 0.255 µM) | ≤ 0.008 µg/mL | > 64 µg/mL | 0.5 µg/mL (≈ 0.981 µM) | 0.031 µg/mL (≈ 0.0608 µM) | 0.25 µg/mL (≈ 0.491 µM) | 16 µg/mL (≈ 31.4 µM) | MIC (Escherichia coli 851E; Escherichia coli, 851E, 20 h): 0.063 µg/mL (≈ 0.124 µM); MIC (Escherichia coli 3190Y; Escherichia coli, 3190Y, 20 h): 0.031 µg/mL (≈ 0.0608 µM); MIC ([16]; Klebsiella aerogenes, 20 h): 0.5 µg/mL (≈ 0.981 µM); MIC [18]: > 64 µg/mL; MIC [19]: > 64 µg/mL; MIC [20]: 0.016 µg/mL (≈ 0.0314 µM); MIC [21]: 1 µg/mL (≈ 1.96 µM); MIC [22]: 32 µg/mL (≈ 62.8 µM) |
